Patent publication US10046082B2, “Collagen sponge containing a drug for promoting fracture healing and method for preparing the same” (WUHAN VSD MEDICAL SCIENCE & TECHNOLOGY CO., LTD., priority 2015, dated 2018)
Marks after values point to notes of the source that are not given here.

What was measured:
fracture sites = assay: Callus cross-sectional area in rabbit fracture healing experiment; assay type: in vivo, New Zealand rabbits; details: sponge placed at fracture site (IB group: 0.1 mg/kg IB after surgery), n=5
Procedure: (§1) 1.1. Experimental Animal: New Zealand rabbits, each being male and having a weight of about 2 to 3 kg (12 to 16 weeks old) were used
(§2) 1.2. Experimental Grouping and Materials: experiments were divided into a control group (Control), a collagen sponge (CS) group, an ibandronate sodium (0.1 mg/kg IB) group, a group with a small dosage of ibandronate sodium+collagen sponge (SIB+CS, 0.125 mg IB), a group with a median dosage of ibandronte sodium+collagen sponge (MIB+CS, 0.25 mg IB), and a group with a large dosage of ibandronate sodium+collagen sponge (LIB+CS, 0.5 mg IB), in total 6 groups. 10 experimental animals are used for each group, […].
(§3) Preparation of materials for the SIB+CS group: 125 μl of 1 mg/ml IB was added into 600 ml of the enzymolysis solution of collagen to prepare a 50*25*5 mm collagen sponge;
(§4) Preparation of materials for the MIB+CS group: 250 μl of 1 mg/ml IB was added into 600 ml of the enzymolysis solution of collagen to prepare a 50*25*5 mm collagen sponge;
(§5) Preparation of materials for the LIB+CS group: 500 μl of 1 mg/ml IB was added into 600 ml of the enzymolysis solution of collagen to prepare a 50*25*5 mm collagen sponge.
Male New Zealand rabbits were anesthetized by marginal ear vein injection with sodium pentobarbital (3%, […]). After the anesthesia, the skin in the surgical area was depilated with 8% sodium sulfide and disinfected. […]

[1] = test system: tibia fracture sites of the rabbits; assay: Three-point bending force test at fracture sites of the rabbits; assay type: in vivo, New Zealand rabbits; details: n=5
Procedure: as §1, §2, §3, §4, §5
Male New Zealand rabbits were anesthetized by marginal ear vein injection with sodium pentobarbital (3%, […]). After the anesthesia, the skin in the surgical area was depilated with 8% sodium sulfide and disinfected. The animals were fixed on their backs, and disinfected and covered with a sterile towel or sheet. A longitudinal incision was cut at the distal femur of the right leg near the patella. The patella was retracted to expose the inner and outer condyles of the distal femur. A 2 mm Kirschner wire was inserted retrogradely between the inner and outer condyles through an electric drill. The Kirschner wire went through the medullary cavity and came out of the skin from the proximal femur. The distal end of the Kirschner wire was cut off and ensured to be embedded under the surface of the knee joint. The knee was reset. An incision was made on the outer side of the distal femur, and the femur was exposed along the intermuscular space. Sufficient protection was provided for the surrounding soft tissues such as muscles and blood vessels. The femur was cut by a dental drill. The Control group and the IB group were not subjected to any treatment. The prepared materials for the CS group, the SIB+CS group, the MIB+CS group and the LIB+CS group were placed at the fracture sites of the animals, respectively. The incisions and the skin were washed with sterile normal saline and sutured with 5-0 nylon thread. Normal saline (0.1 ml/kg) and ibandronate sodium (0.1 ml/kg) were administered to the Control group and the IB group after surgery, respectively. All the animals were injected intramuscularly with buprenorphine (0.05 mg/kg) twice and with ciprofloxacin (10 mg/kg) once a day for 3 days after the surgery. All the animals were fed normally (lightless, quiet, at a temperature from 20 to 26° C., and at a humidity below 80%). X-ray photographs were taken on the day of surgery to check the condition of fracture apposition and alignment after the surgery. Further, half of the New Zealand rabbits were sacrificed at the 2nd week and the 4th week for detection, respectively.
3.2. Three-point bending force test at tibia fracture sites of the rabbits at the second week and the fourth week

Question: Which “callus cross-sectional area (CSA)” value (fracture sites; 2nd week after surgery) does the source give for `CCCCCN(C)CCC(O)(P(=O)(O)O)P(=O)(O)O` [IB, ibandronate sodium] here?
Answer: 89.9 ± 3.6^a,h,i,j,k mm^2

Question: And the “callus cross-sectional area (CSA)” value (fracture sites; 4th week after surgery)?
Answer: 120.5 ± 7.8^a,h,i,j,k mm^2

Question: What about the “Compressive Strength” value ([1]; 2nd week) of the same molecule?
Answer: 4.7 ± 1.8 Nmm

Question: And the “Elastic Modulus” value ([1]; 2nd week)?
Answer: 7.3 ± 2.2 MPa

Question: And the “Limit Load” value ([1]; 2nd week)?
Answer: 6.8 ± 1.7 N

Question: And the “Compressive Strength” value ([1]; 4th week)?
Answer: 64.6 ± 7.3^j Nmm

Question: And the “Elastic Modulus” value ([1]; 4th week)?
Answer: 88.2 ± 19.5 MPa

Question: What about the “Limit Load” value ([1]; 4th week) of the same molecule?
Answer: 95.9 ± 7.04^i,j N
